According to ChEMBL document CHEMBL1155798, “Enhanced affinity of ketotifen toward tamarind seed polysaccharide in comparison with hydroxyethylcellulose and hyaluronic acid: a nuclear magnetic resonance investigation” (Bioorg Med Chem, 2008):
Calls of active or inactive are those of the source. The calls are words filed in the database; no cut-off is given here.

Experiments:
Tamarindus indica [1] = assay: Binding affinity to tamarind seed polysaccharide by dynamic dialysis
Tamarindus indica [2] = assay: Binding affinity to tamarind seed polysaccharide by NMR

CN1CCC(=C2c3ccccc3CC(=O)c3sccc32)CC1
Activity (Tamarindus indica [1]): Active | Activity (Tamarindus indica [2]): Active
